Literature values as cited in patent US20100113469A1, “COMBINATION THERAPY FOR THE TREATMENT-OF LOWER URINARY TRACT SYMPTOMS” (MERCK & CO., INC., priority 2007, published 2010).

Legend:
rats [1] = details: intravenous
rats [2] = details: hyperreflexia paradigms, intravenous
rats [3] = details: detrusor instability paradigm, oral
patients = details: instilled directly into the bladder
human bladders = details: in vitro
rats [4] = system: rats

Which bladder pressure (rats [1]) does the source give for `C[C@H](Cc1ccc2c(c1)OC(C(=O)[O-])(C(=O)[O-])O2)NC[C@H](O)c1cccc(Cl)c1.[Na+].[Na+]` [CL316243] here?
The bladder pressure was “reduces bladder pressure”.

What about the bladder capacity (rats [1]; cystometric studies) of the same compound?
Its bladder capacity is “increases bladder capacity”.

And the residual urine volume (rats [1]; cystometric studies)?
Its residual urine volume is “without increasing residual urine volume”.

And the voiding interval (rats [2])?
The voiding interval was “dose-dependently normalizes voiding interval”.

What about the spontaneous bladder contractions (rats [3]) of the same compound?
Its spontaneous bladder contractions is “dose-dependent inhibition of spontaneous bladder contractions”.

With `COc1cc(CNC(=O)CCCC/C=C/C(C)C)ccc1O` [Capsaicin, capsaicin] as the compound, how does the “patients with beneficial effects (i.e. increased bladder capacity)” value (patients) read?
Its value is about 70%.

For `CCCCCCNC(=O)Nc1ccc(S(=O)(=O)Nc2ccc(CCNC[C@H](O)COc3ccc(O)cc3)cc2)cc1` [L-755507], which “relaxation evoked in control versus obstructed human bladders” value (human bladders) is on record?
The value was “equivalent”.

For `COc1ccccc1CC(=N)N1C[C@@H]2C(=O)CCC(c3ccccc3)(c3ccccc3)[C@@H]2C1` [RP 67580], which volume threshold (rats [4]; cyclophosphamide-induced bladder overactivity, i.t. vs i.v.) is on record?
The volume threshold was “increased the volume threshold after i.t., but not i.v. administration”.

With `C=C(C)[C@]12C[C@@H](C)[C@@]34O[C@](Cc5ccccc5)(O[C@@H]1[C@@H]3C=C(COC(=O)Cc1ccc(O)c(OC)c1)C[C@]1(O)C(=O)C(C)=C[C@@H]41)O2` [Resinferatoxin] as the compound, how does the “potency relative to capsaicin” value (C-fibers) read?
Its value is about 100 fold.

Which “response in cyclophosphamide-induced model” value (rats [4]; 10 nmol/rat) does the source give for `CC(=O)NC1(c2ccccc2)CCN(CC[C@H](CN(C)C(=O)c2ccccc2)c2ccc(Cl)c(Cl)c2)CC1` [SR 48968] here?
Its value is “moderate response”.

What does the source list for `Cc1ccc(-c2c3n(c(=O)c4ncccc24)CC[C@@H](C)CN(Cc2cc(C(F)(F)F)cc(C(F)(F)F)c2)C3=O)cc1` [TAK-637]?
micturition reflex induced by electrical stimulation of the rostral brainstem near the locus coeruleus (decerebrate cats; 3 mg/kg i.v.): did not inhibit; voiding efficiency (decerebrate cats; decerebrate cats, 0.1, 0.3, 1 and 3 mg/kg i.v.): without any significant reduction in voiding efficiency; maximal increase in bladder capacity (decerebrate cats; decerebrate cats, 0.1, 0.3, 1 and 3 mg/kg i.v., dose-dependent): 94%; micturition reflex induced by topical application of capsaicin onto the bladder dome (guinea pig; guinea pig, in vivo): inhibited the micturition reflex; distension-induced rhythmic bladder contractions (guinea pig; guinea pig, systemic administration): decreased the number but not the amplitude; spinal vesico-vesical reflex induced by electrical stimulation of the proximal cut end of the pelvic nerve (guinea pig; spinal animals): inhibits the spinal vesico-vesical reflex; carbachol or electrical field stimulation induced contractions (isolated bladder strips): had no effect
